According to article PMC9130538, “Amino acids in transmembrane helix 1 confer major functional differences between human and mouse orthologs of the polyspecific membrane transporter OCT1” (The Journal of Biological Chemistry, 2022):

Assays:
[1] = target: T1, human OCT1 with mouse TMH1 (human–mouse chimeric OCT1) (Homo sapiens, UniProt O15245, A31S/C36Y/F32L/I24L/L28I); test: Uptake by HEK293 cells transiently overexpressing chimeric human OCT1 carrying mouse TMH1; type: cell-based; details: 200 μM trospium, 2 min, transient transfection
T1 construct: expressed in transfected cells
Method: (§1) Human–mouse chimeric OCT1 constructs were generated using the overlap extension method ([50]) and have been characterized before ([34]). […] All constructs were validated by capillary sequencing of the complete open reading frame of OCT1 before transfection into HEK293 cells.
(§2) For transient transfection of OCT1 constructs into HEK293 cells for uptake experiments, 5 × 10^5 T-REx-293 cells (Life Technologies) were seeded per well in 12-well plates precoated with poly-D-lysine. […] At 48 h later, transfection efficacy was assessed microscopically by visualizing the GFP signal of the cotransfected GFP vector, and the cells were subsequently used for uptake experiments. […]
(§3) Cellular uptake experiments were performed at 37 °C and pH 7.4 using HBSS supplemented with 10 mM Hepes (in the following referred to as HBSS+). […] Cells were washed twice with 2 ml ice-cold HBSS+ and lysed with 80% acetonitrile supplemented with internal standard, 0.1 N NaOH/0.1% SDS, or radioimmunoprecipitation buffer for LC–MS/MS, liquid scintillation counting, or fluorescence spectroscopy detection, respectively. Intracellular substrate concentrations were measured as described in the following and were then normalized to the amount of total protein in the samples as measured using the bicinchoninic acid assay ([51]). […]

[2] = human, estimated based on clinical data, ref [39]; cited from earlier work
[3] = target: T2, human OCT1 Phe32Leu (Homo sapiens, UniProt O15245, F32L); test: Uptake by HEK293 cells overexpressing Phe32Leu human OCT1; type: cell-based; details: 200 μM trospium, 2 min, transient transfection, versus human wildtype
T2 construct: expressed in transfected cells
Method: as §1, §2, §3

[4] = target: T3, human OCT1 (Homo sapiens, UniProt O15245); test: Cellular uptake by HEK293 cells overexpressing human OCT1 (wildtype)
T3 sequence (O15245 1-554): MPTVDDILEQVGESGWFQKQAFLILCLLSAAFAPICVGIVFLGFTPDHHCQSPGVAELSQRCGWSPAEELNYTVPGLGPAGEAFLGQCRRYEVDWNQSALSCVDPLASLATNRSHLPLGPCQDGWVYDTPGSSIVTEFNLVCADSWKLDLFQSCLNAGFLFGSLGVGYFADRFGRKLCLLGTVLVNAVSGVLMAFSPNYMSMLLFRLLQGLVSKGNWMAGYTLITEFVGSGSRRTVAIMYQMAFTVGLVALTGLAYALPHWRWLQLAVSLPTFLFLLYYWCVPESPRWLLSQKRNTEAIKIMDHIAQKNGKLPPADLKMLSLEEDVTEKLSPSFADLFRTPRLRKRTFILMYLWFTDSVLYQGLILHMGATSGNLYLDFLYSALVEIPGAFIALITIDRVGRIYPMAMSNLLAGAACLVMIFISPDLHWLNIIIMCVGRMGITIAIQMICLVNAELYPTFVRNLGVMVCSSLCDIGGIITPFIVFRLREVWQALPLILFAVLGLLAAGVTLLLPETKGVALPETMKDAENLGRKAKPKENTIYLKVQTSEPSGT
Method: Generation and characterization of these cell lines has been described in detail before ([34], [48], [49]). Cells were cultured in Dulbecco’s Modified Eagle’s Medium supplemented with 10% fetal bovine serum, 100 U/ml penicillin, and 100 μg/ml streptomycin at 37 °C and 5% CO2 and were passaged twice a week.
At 48 h prior to the experiment, 6 × 10^5 cells were seeded per well in 12-well plates. When using transiently transfected cells, 5 × 10^5 T-REx-293 cells (Life Technologies) were seeded per well in 12-well plates 72 h prior to the experiment, and they were transfected 24 h later as described previously. Twelve-well plates were precoated with poly-D-lysine.
Cellular uptake experiments were performed at 37 °C and pH 7.4 using HBSS supplemented with 10 mM Hepes (in the following referred to as HBSS+). Cells were washed with 1 ml prewarmed (37 °C) HBSS+, and the uptake was initiated by adding 400 μl of prewarmed HBSS+ containing the substrate. Uptake was allowed for exactly 2 min and afterward stopped by adding 2 ml ice-cold HBSS+. Cells were washed twice with 2 ml ice-cold HBSS+ and lysed with 80% acetonitrile supplemented with internal standard, 0.1 N NaOH/0.1% SDS, or radioimmunoprecipitation buffer for LC–MS/MS, liquid scintillation counting, or fluorescence spectroscopy detection, respectively. Intracellular substrate concentrations were measured as described in the following and were then normalized to the amount of total protein in the samples as measured using the bicinchoninic acid assay ([51]).
For LC–MS/MS quantification of intracellular substrate concentrations, the cell lysate was centrifuged at 16,000g for 15 min, and 350 μl of supernatant was evaporated to dryness under nitrogen flow at 40 °C. The sample was reconstituted with 200 μl 0.1% formic acid, and between 2 and 30 μl were injected into the LC–MS/MS system (Table S1).
An API4000 QTRAP tandem mass spectrometer with ESI interface (AB SCIEX) was used, coupled to a Shimadzu Nexera X2 UHPLC system with LC 30AD pumps and SiL 30AC autosampler (Shimadzu).
Intracellular concentrations of radioactively labeled substrates MPP^+ and TEA^+ were quantified using liquid scintillation counting. To this end, 400 μl cell lysate was transferred into a 20 ml scintillation vial, 9 ml Aquasafe 500 Plus liquid scintillator (both Zinsser Analytics) was added, and the sample was measured in the Scintillation Counter LS6500 (Beckman Coulter).
For both analyses, SPSS Statistics, version 28 (SPSS, Inc, IBM) was used.

[5] = target: T4, mouse Oct1 Leu32Phe (Mus musculus, UniProt O08966, L32F); test: Uptake by HEK293 cells overexpressing Leu32Phe mouse Oct1; type: cell-based; details: 200 μM trospium, 2 min, transient transfection
T4 construct: expressed in transfected cells
T4 sequence (O08966 whole entry L32F): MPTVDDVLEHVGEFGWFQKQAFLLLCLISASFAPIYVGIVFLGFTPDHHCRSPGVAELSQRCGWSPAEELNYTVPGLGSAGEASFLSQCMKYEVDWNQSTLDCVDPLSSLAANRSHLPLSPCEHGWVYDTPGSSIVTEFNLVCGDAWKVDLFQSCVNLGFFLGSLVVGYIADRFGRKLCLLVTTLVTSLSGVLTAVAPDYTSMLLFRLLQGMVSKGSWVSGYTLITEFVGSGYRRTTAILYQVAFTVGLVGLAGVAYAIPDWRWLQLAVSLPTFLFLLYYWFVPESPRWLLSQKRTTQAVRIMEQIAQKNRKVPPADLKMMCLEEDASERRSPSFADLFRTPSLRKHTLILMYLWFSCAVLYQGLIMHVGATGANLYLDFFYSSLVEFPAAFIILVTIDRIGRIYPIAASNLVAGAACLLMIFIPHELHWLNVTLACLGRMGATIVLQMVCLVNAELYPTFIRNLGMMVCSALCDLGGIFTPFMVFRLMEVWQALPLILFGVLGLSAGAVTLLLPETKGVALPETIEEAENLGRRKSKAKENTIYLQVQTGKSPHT
Method: as §1, §2, §3

[6] = target: T5, human OCT1 Cys36Tyr (Homo sapiens, UniProt O15245, C36Y); test: Uptake by HEK293 cells overexpressing Cys36Tyr human OCT1; type: cell-based; details: 200 μM trospium, 2 min, transient transfection
T5 construct: expressed in transfected cells
Method: as §1, §2, §3

[7] = human versus mouse OCT1, stably transfected HEK293

## O=C(O[C@H]1C[C@H]2CC[C@@H](C1)[N+]21CCCC1)C(O)(c1ccccc1)c1ccccc1 [Trospium]
[1]
  decrease of trospium uptake compared with human wildtype: 91%
[2]
  clinically relevant (plasma) concentration: 13.3 nM
[3]
  decrease of trospium uptake by Phe32Leu in human OCT1: 79%
[4]; 100 nM, 2 min, stably transfected HEK293
  difference in uptake between human and mouse OCT1 at low concentration: did not see differences in uptake
[4]; [7]
  fold higher capacity (vmax) of human OCT1 than mouse Oct1: 9.0 fold
  fold lower affinity (KM) of human OCT1 than mouse Oct1 (higher affinity of mouse Oct1): 10.6 fold
[5]; versus human wildtype OCT1
  trospium uptake exceeding the uptake of the human ortholog: 2.8 fold
[5]; versus mouse wildtype
  increase of trospium uptake by Leu32Phe in mouse Oct1: sevenfold
[6]
  effect of Cys36Tyr on uptake of trospium: did not affect
